# From PMC4802308, “Integrating computational and chemical biology tools in the discovery of antiangiogenic small molecule ligands of FGF2 derived from endogenous inhibitors” (Scientific Reports, 2016)
# Assays:
# FGF2 [1] = target: T1, FGF2 (Homo sapiens, UniProt P09038); assay: SPR direct binding to sensorchip-immobilized FGF2; settings: single site model, one experiment representative of two, read-out: Kd (dissociation constant) of FGF2/compound interaction
# T1 construct: purchased R&D Systems, obtained through the NCI-Biological Resources Branch
# T1 sequence (P09038 134-288 limits assumed): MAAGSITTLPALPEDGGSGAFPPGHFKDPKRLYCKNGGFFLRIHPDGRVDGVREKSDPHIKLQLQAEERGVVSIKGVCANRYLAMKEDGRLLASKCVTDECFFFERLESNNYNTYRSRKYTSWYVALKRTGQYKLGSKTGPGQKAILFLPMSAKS
# Method: SPR measurements were performed on a BIAcore X100 instrument (GE-Healthcare, WI). FGF2 was immobilized on a CM5 sensorchip (GE-Healthcare) as described, allowing the immobilization of 7,365 resonance units (RU) (410 fmol/mm^2 of FGF-2).
# Suppl. Table S2. Determination of the affinity (Kd) of the FGF2/compound interactions by
# Binding parameters were calculated by the non-linear curve fitting software package BIAevaluation
# 3.2 using a single site model with correction for mass transfer. Dissociation constant (Kd) values
# were derived from the dissociation rate/association ratio. Only sensorgrams whose fitting gave
# values of X2 lower than 10 were used {Khalifa, 2001 #213}.
# FGF2 [2] = target: T1, FGF2; assay: Competition with biotinylated recombinant TSP-1 domain (E123CaG1) for binding to FGF2 (DELFIA); settings: for IC50: mean ± SE of 3 experiments; for fold more active than the initial query SM27 (competition IC50): vs SM27
# FGF2 [3] = target: T1, FGF2; assay: as above; settings: 5 μM
# Excerpt: Of the identified hits, 23 (Fig. 1 and Suppl. Table S1), made available from the NCI (NIH), were subjected to experimental analysis of FGF2 binding. We used an indirect assay, based on the competition of the tested molecules with the recombinant TSP-1 type III domain for binding to FGF2, an approach previously employed to analyze the FGF2/SM27 binding.
# Figure 2 FGF2-binding property of the selected hits, analyzed with an indirect assay, as ability to compete with the TSP-1 fragment E123CaG1 (comprising the type III repeats domain) for FGF2 binding, as described in Methods. Binding of the biotinylated recombinant domain to FGF2 in the presence or absence of each molecule (5 μM). Data are the percentage of control binding, mean and SE of 3 experiments performed in triplicate. *p < 0.05 compared to control (ANOVA followed by Bonferroni test).
# DELFIA® Microtitration plates and reagents were from PerkinElmer. Plates were coated overnight at 4 °C with FGF2 (0.1 μg in 40 μl /well PBS). After washing, non-specific binding sites were saturated by a 30 minute incubation with PBS 1% BSA. The biotin-labeled recombinant TSP-1 fragment (10 nM) was added in 40 μl PBS 1% BSA with or without the indicated concentration of small molecules, and incubated for 3 h at room temperature. The plates were washed with PBS 0.1% BSA and incubated for 1 h with 100 μl/well Eu-Labeled Streptavidin 1:1000 at room temperature. After washing, plates were incubated with DELFIA® Enhancement Solution. Time resolved fluorescence was measured using a Victor[3] multilabel plate reader (PerkinElmer).
# [4] = Dynamic Light Scattering (photon correlation spectroscopy) and Zeta potential analysis of aggregates in solution; type: physicochemical; settings: for Zeta potential: 1mg/ml solution, in mV (unit assumed)
# Excerpt: Binding of 5 water-soluble compounds to FGF2 was further analyzed by surface plasmon resonance (SPR). All the compounds were able to bind FGF2 immobilized to a SPR sensorchip (Suppl. Figure S2). […] In the context of biophysical characterization of compounds, we also tested the formation of aggregates in solution by representative compounds SM.2-16, SM.2-20 and SM.2-23, using Dynamic Light Scattering, which allows measuring nanoparticle size and polydispersion index (by Photocorrelation Spectroscopy) and surface charge (Zeta potential). For all the molecules, at concentrations between 0.03 and 1 mg/ml, the hydrodynamic radius ranged from 2.1 to 2.9 nm, with polydispersity index values between 0.5 and 0.6 (Table 2): no significant variation in the hydrodynamic radius was observed upon decreasing the concentrations, typically indicative of a non-aggregated state. Zeta potential values were strongly negative (indicative of molecule dissociation), ranging from −48 to −52 (Table 2). These findings therefore indicate that the solutions are fairly monodispersed, containing mainly single, charged molecules.
# The Photon correlation spectroscopy (PCS) and the Zeta Potential (Zp) values were measured using the Zetasizer Nano ZS (Malvern, Worcestshire, UK), as detailed in Supplementary Material. Data were analyzed by Zetasizer software, version 7.11 (Malvern, Worcestshire, UK).
# Photon correlation spectroscopy and Zeta Potential analysis. Photon correlation spectroscopy (PCS) and the Zeta Potential (Zp) values were measured using the Zetasizer Nano ZS (Malvern, Worcestshire, UK) with a fixed 173° scattering angle and a 633 -nm-helium-neon-laser. Data were analyzed by Zetasizer software, version 7.11 (Malvern, Worcestshire, UK). The set up temperature […]
# Samples were dissolved in 1 ml of deionized water with 1% HBSS (Hanks’ Balanced Salt solution) to obtain a concentration of about 3mg/ml. For PCS experiments the solution was further diluted with HBSS to the indicated concentration, transferred to a disposable folded capillary cell at room temperature and analyzed 10’ minutes post-diluting.
# For Zp measurements, 1mg/ml solution of the compounds were used. Due to the high conductivity of buffer solution precluding electrophoretic mobility measurements, about 3mg of samples were solubilized in 1% HBSS and diluted with suitable volume of deionized water. The solution, was transferred to a disposable folded capillary cell (Malvern, Worcestshire, UK) at room temperature and analyzed 10’ post-diluting. […]
# [5] = system: FGF2-induced vessels sprouting, murine aortic rings; assay: Aortic rings assay (FGF2-induced vessels sprouting, 3D Matrigel); parameters: species or system C57BL/6 mice; settings: FGF2 30 ng/ml, small molecules 100 μM
# Method: Figure 4 Biological activity of the selected hits. (A) Endothelial cell proliferation. BAEC were exposed to FGF2 (5 ng/ml) with increasing concentrations of molecules (3–80 μM). After 72 h, cells were stained and proliferation measured as absorbance. Data are the percentage of control proliferation (in absence of molecules), mean of value from 2 experiments performed in triplicate. (B–D) Aortic ring assay. Sections of murine aortas were embedded in Matrigel, in the presence of FGF2 (30 ng/ml) and the indicated small molecule. The formation of capillary structures sprouting from the rings was analyzed after 7 and 11 days as described in Methods, and the angiogenic response expressed as area covered by the sprouting structures (arbitrary units, mean and SE, n ≥ 6). (B) Antiangiogenic activity of the small molecules (100 μM). (C) Examples of time-dependent and dose-dependent effect of two compounds (SM.2–20 and SM.2–23), tested at 100 (diamond), 50 (circle) and 25 μM (triangle) compared to control (black squares). (D) Representative pictures of sprouting from control and SM.2–23 treated aortic sections. Original magnification, 20x. (E,F) Chorioallantoic membrane assay. FGF2 (200 ng) was administered in the absence or presence of the indicated compound (0.5 μg) on day 8 (n = 10). (E) Angiogenic response is evaluated 4 days later, and expressed as number of vessels entering the sponge (mean and SD). (F) Representative pictures are shown. Original magnification, 50x.
# Thoracic aortas were removed from mice, cleaned of perivascular adipose tissue and cut into 1 mm segments. Matrigel (75 μl, BD Biosciences) was added to 96 well plates, and allowed to gellify at 37 °C for 30 min. Aortic sections were added to the wells, and covered with a second layer of Matrigel and DMEM 5% FCS containing FGF2 (30 ng/ml) and the indicated concentration of the compounds. The formation of capillary structures sprouting from the rings was analyzed after 4, 7 and 11 days with an inverted-phase contrast microscope (IX70; Olympus). Images were analyzed with ImageJ 1.48, and the angiogenic response expressed as area covered by the sprouting structures (arbitrary units), substracted the area of the aortic section.
Compound,Kd (FGF2 [1]),IC50 (FGF2 [2]),prevention of FGF2/TSP-1 binding (first screening) (FGF2 [3]),Hydrodynamic Radius ([4]; 0.03125 mg/ml),PdI (polydispersion index) ([4]; 0.03125 mg/ml),Hydrodynamic Radius ([4]; 0.0625 mg/ml),PdI (polydispersion index) ([4]; 0.0625 mg/ml),Hydrodynamic Radius ([4]; 0.125 mg/ml),PdI (polydispersion index) ([4]; 0.125 mg/ml),Hydrodynamic Radius ([4]; 0.25 mg/ml),PdI (polydispersion index) ([4]; 0.25 mg/ml),Hydrodynamic Radius ([4]; 0.5 mg/ml),PdI (polydispersion index) ([4]; 0.5 mg/ml),Hydrodynamic Radius ([4]; 1 mg/ml),PdI (polydispersion index) ([4]; 1 mg/ml),Zeta potential [4],fold more active than the initial query SM27 (competition IC50) (FGF2 [2]),inhibition of FGF2-induced vessels sprouting [5]
"O=C(Nc1ccc2cc(S(=O)(=O)O)cc(O)c2c1)Nc1ccc2cc(S(=O)(=O)O)cc(O)c2c1 [SM27, 6,6'-(carbonylbis(azanediyl))bis(4-hydroxynaphthalene-2-sulfonic acid), reference compound]",335 nM,3900 ± 230 nM,,,,,,,,,,,,,,,,
"O=C(Nc1ccc2cc(S(=O)(=O)O)cc(S(=O)(=O)O)c2c1)Nc1ccc2cc(S(=O)(=O)O)cc(S(=O)(=O)O)c2c1 [SM.2–11, 7,7'-(carbonylbis(azanediyl))bis(naphthalene-1,3-disulfonic acid)]",,,lost,,,,,,,,,,,,,,,
"Cc1ccc(/N=N/c2c(S(=O)(=O)O)cc3cc(NC(=O)Nc4ccc5c(O)c(/N=N/c6ccc7cc(S(=O)(=O)O)ccc7c6)c(S(=O)(=O)O)cc5c4)ccc3c2O)c(C)c1 [SM.2–23, 3-((E)-(2,4-dimethylphenyl)diazenyl)-4-hydroxy-7-(3-(5-hydroxy-7-sulfo-6-((E)-(6-sulfonaphthalen-2-yl)diazenyl)naphthalen-2-yl)ureido)naphthalene-2-sulfonic acid]",93 nM,530 ± 110 nM,,,,2.370 nm,0.677,2.765 nm,0.557,2.951 nm,0.59,2.597 nm,0.539,2.877 nm,0.545,−52.2,6–11 fold,significantly inhibited

# More lines, main results first:
Kd (FGF2 [1]),IC50 (FGF2 [2]),prevention of FGF2/TSP-1 binding (first screening) (FGF2 [3]),Hydrodynamic Radius ([4]; 0.03125 mg/ml),PdI (polydispersion index) ([4]; 0.03125 mg/ml),Hydrodynamic Radius ([4]; 0.0625 mg/ml),PdI (polydispersion index) ([4]; 0.0625 mg/ml),Hydrodynamic Radius ([4]; 0.125 mg/ml),PdI (polydispersion index) ([4]; 0.125 mg/ml),Hydrodynamic Radius ([4]; 0.25 mg/ml),PdI (polydispersion index) ([4]; 0.25 mg/ml),Hydrodynamic Radius ([4]; 0.5 mg/ml),PdI (polydispersion index) ([4]; 0.5 mg/ml),Hydrodynamic Radius ([4]; 1 mg/ml),PdI (polydispersion index) ([4]; 1 mg/ml),Zeta potential [4],fold more active than the initial query SM27 (competition IC50) (FGF2 [2]),Compound,inhibition of FGF2-induced vessels sprouting [5]
,,reduced activity,,,,,,,,,,,,,,,"O=C(Nc1ccc2c(O)c(/N=N/c3ccccc3)c(S(=O)(=O)O)cc2c1)Nc1ccc2c(O)c(/N=N/c3ccccc3)c(S(=O)(=O)O)cc2c1 [SM.2–12, 4-hydroxy-7-(3-(5-hydroxy-6-((E)-phenyldiazenyl)-7-sulfonaphthalen-2-yl)ureido)-3-((E)-phenyldiazenyl)naphthalene-2-sulfonic acid]",
125 nM,590 ± 90 nM,,2.140 nm,0.495,2.364 nm,0.742,2.149 nm,0.452,2.511 nm,0.663,2.265 nm,0.533,2.283 nm,0.695,−48.0,6–11 fold,"COc1ccccc1/N=N/c1c(S(=O)(=O)O)cc2cc(NC(=O)Nc3ccc4c(O)c(/N=N/c5ccc6cc(S(=O)(=O)O)ccc6c5N)c(S(=O)(=O)O)cc4c3)ccc2c1O [SM.2–16, 3-((E)-(1-amino-6-sulfonaphthalen-2-yl)diazenyl)-4-hydroxy-7-(3-(5-hydroxy-6-((E)-(2-methoxyphenyl)diazenyl)-7-sulfonaphthalen-2-yl)ureido)naphthalene-2-sulfonic acid]",significantly inhibited
,350 ± 30 nM,,,,,,,,,,,,,,,6–11 fold,"CC(=O)Nc1ccc(/N=N/c2c(S(=O)(=O)O)cc3cc(NC(=O)Nc4ccc5c(O)c(/N=N/c6ccccc6)c(S(=O)(=O)O)cc5c4)ccc3c2O)cc1 [SM.2–19, 3-((E)-(4-acetamidophenyl)diazenyl)-4-hydroxy-7-(3-(5-hydroxy-6-((E)-phenyldiazenyl)-7-sulfonaphthalen-2-yl)ureido)naphthalene-2-sulfonic acid]",not
318 nM,500 ± 110 nM,,2.186 nm,0.523,2.159 nm,0.658,2.172 nm,0.635,2.480 nm,0.789,2.571 nm,0.518,2.878 nm,0.595,−50.2,6–11 fold,"Cc1ccccc1/N=N/c1c(S(=O)(=O)O)cc2cc(NC(=O)Nc3ccc4c(O)c(/N=N/c5ccc6cc(S(=O)(=O)O)ccc6c5)c(S(=O)(=O)O)cc4c3)ccc2c1O [SM.2–20, 4-hydroxy-7-(3-(5-hydroxy-7-sulfo-6-((E)-(6-sulfonaphthalen-2-yl)diazenyl)naphthalen-2-yl)ureido)-3-((E)-o-tolyldiazenyl)naphthalene-2-sulfonic acid]",significantly inhibited
39 nM,420 ± 90 nM,,,,,,,,,,,,,,,6–11 fold,"Cc1cccc(/N=N/c2c(S(=O)(=O)O)cc3cc(NC(=O)Nc4ccc5c(O)c(/N=N/c6ccc7cc(S(=O)(=O)O)ccc7c6)c(S(=O)(=O)O)cc5c4)ccc3c2O)c1 [SM.2–22, 4-hydroxy-7-(3-(5-hydroxy-7-sulfo-6-((E)-(6-sulfonaphthalen-2-yl)diazenyl)naphthalen-2-yl)ureido)-3-((E)-m-tolyldiazenyl)naphthalene-2-sulfonic acid]",significantly inhibited
